# Source: patent US5998477A, “Substituted methoxy benzylidene indenyl-acetic and propionic acids for treating patients with precancerous lesions” (Cell Pathways Inc., priority 1997, dated 1999)
# Entries after “also recorded” stand apart in the source; their conditions may differ.
# Tests used:
# HT-29 = assay: Apoptosis/Necrosis by fluorescent microscopy (acridine orange and ethidium bromide); format: cell-based, human
# Experimental: (§1) Drug stock solutions were made in 100% DMSO then diluted with RPMI media for cell culture testing. All drug solutions were prepared fresh on the day of testing. The cultured cells were obtained at passage #118 and grown in RPMI media supplemented with 5% fetal calf serum, and 2 mM glutamine, 100 U/ml penicillin, 100 U/ml streptomycin, and 0.25 μg/ml amphotericin. The cultures were maintained in a humidified atmosphere of 95% air and 5% CO2 at 37° C. The cultures were passaged at preconfluent densities using a solution of 0.05% trypsin and 0.53 mM EDTA. All experiments involved HT-29 cells between passages 120 and 140, except for the compound of Example 29 which involved SW-480 cell line. Cells were plated at the following densities to obtain cultures used for the experiments: 500 cells/well for 96 well flat-bottom microtiter plates, 1×10^6 cells 2 per 25 cm^2 flask.
# Apoptosis and necrosis were measured using an assay that allowed for the simultaneous measurement of both types of cell death based on morphological characteristics of apoptotic cells (i.e., condensed chromatin) and membrane permeability. Drug preparation and cell culture conditions were the same as for the SRB assay described above. Confluent cultures were established in 25 cm^2 flasks. The cultures were assayed for apoptosis and necrosis by fluorescent microscopy following labeling with acridine orange and ethidium bromide. Floating and attached cells were collected by trypsinization and washed three times in PBS. One ml aliquots of 1×10^6 cells were centrifuged (300 g). The pellet was resuspended in 25 μl media and 1 μl of a dye mixture containing 100 μg/ml acridine orange and 100 μg/ml ethidium bromide prepared in PBS and mixed gently. Ten μl of mixture was placed on a microscope slide and covered with a 22 mm^2 coversilp and examined under 40× dry objectives using epillumination and filter combination.
# An observer blinded to the identity of the treatments scored at least 100 cells per sample. Apoptotic cells were identified by nuclear condensation of chromatin stained by the acridine orange or ethidium bromide, respectively. Necrotic cells were identified by uniform labelling of the cell with ethidium bromide.
# [1] = system: DMBA-Induced Mammary Lesions in Organ Culture; assay: Mouse mammary gland organ culture, DMBA-induced mammary lesions; format: cell-based, mouse (BALB/c); conditions: vs. vehicle (DMSO), read-out: Percent Inhibition
# Experimental: The compound of Example No. 1 was also tested for its ability to inhibit the incidence of mammary lesions in an organ culture system. This mouse mammary gland organ culture technique has been successfully used by other investigators to study the effects of known cancer-chemopreventative agents such as retinoids and selenium.
# Female BALB/c mice, 28 days old, were treated for nine days with a combination of 1 μg of estradiol and 1 mg of progesterone daily, in order to prime the glands to be responsive to hormones in vitro. The animals were sacrificed and thoracic mammary glands were excised aseptically and incubated for ten days in growth media supplemented with growth-promoting hormones: insulin, prolactin, and hydrocortisone, at 5 μg/ml each and aldosterone at 1 μg/ml. A twenty-four hour treatment of 7,12-dimethylbenz(a)anthracene (DMBA, 2 μg/ml) was carried out between days three and four to induce the formation of mammary lesions. Fully developed glands were deprived of prolactin, hydrocortisone, and aldosterone for 14 days, resulting in the regression of the glands but not the mammary lesions. […]
# The extent of the area occupied by the mammary lesions was quantitated by projecting an image of the gland onto a digitation pad. […] The space covered by each of the unregressed structures was also outlined on the digitization pad and quantitated by the computer.
# SW-480 cell line = assay: Tumor cell growth inhibition, Sulforhodamine B (SRB) protein binding assay, SW-480; format: cell-based; conditions: Homo sapiens, SW480, 144 h, SW-480, six days exposure, read-out: Single Dose Percent Inhibition
# Experimental: as §1
# Tumor cell growth inhibition was assessed using the Sulforhodamine B (SRB) protein binding assay. In this assay, tumor cells were plated in 96-well plates and treated with drug-containing media for six days (continuous exposure). […] The dye was then solubilized, and the optical density of the resulting solution was determined on a 96-well plate reader. […]
# For each experiment, an IC50 value was determined, if possible, and used for comparative purposes. […]
# prostaglandin synthesis = conditions: background; cited from earlier work
# [2] = background; cited from earlier work
# colonic polyps = conditions: patients taking the drug; cited from earlier work
# [3] = background; sulfoxide itself; cited from earlier work
# [4] = background; cited from earlier work; remark: listed apart in the source
# precancerous lesions = conditions: background; cited from earlier work
compound,measurement,setting,value
"COc1cc(/C=C2/C(C)=C(CC(=O)O)c3cc(F)ccc32)cc(OC)c1OC [Example 1, (Z)-5-fluoro-2-methyl-1-(3,4,5-trimethoxybenzylidene)-3-indenyl-acetic acid]",% Apoptotic Cells,HT-29; 200 μM,> 90%
same,inhibition at 10 µM,[1]; 10 μM,50%
same,inhibition at 100 µM,[1]; 100 μM,100%
"COc1cc(OC)c(/C=C2/C(C)=C(CC(=O)O)c3cc(F)ccc32)c(OC)c1 [Example 4, (Z)-5-fluoro-2-methyl-1-(2,4,6-trimethoxybenzyildene)-3-indenyl-acetic acid]",% Apoptotic Cells,HT-29; 200 μM,> 90%
"CC1=C(CC(=O)O)c2cc(F)ccc2/C1=C\c1c(Cl)cccc1Cl [Example 6, (Z)-5-fluoro-2-methyl-1-(2,6-dichlorobenzylidene)-3-indenyl-acetic acid]",% Apoptotic Cells,HT-29; 200 μM,60%
same,% Necrotic Cells,HT-29; 200 μM,40%
"COc1ccc(/C=C2/C(C)=C(CC(=O)O)c3cc(F)ccc32)c(OC)c1OC [Example 7, (Z)-5-fluoro-2-methyl-1-(2,3,4-trimethoxybenzylidene)-3-indenyl-acetic acid]",% Apoptotic Cells,HT-29; 200 μM,> 90%
"COc1cc(OC)c(OC)cc1/C=C1/C(C)=C(CC(=O)O)c2cc(F)ccc21 [Example 8, (Z)-5-fluoro-2-methyl-1-(2,4,5-trimethoxybenzylidene)-3-indenyl-acetic acid]",% Apoptotic Cells,HT-29; 200 μM,> 90%
"CC1=C(CC(=O)O)c2cc(F)ccc2/C1=C\c1ccccc1 [Example 10, (Z)-5-fluoro-2-methyl-1-benzylidene-3-indenyl-acetic acid]",% Apoptotic Cells,HT-29; 300 μM,90%
"COc1ccc(/C=C2/C(C)=C(CC(=O)O)c3cc(F)ccc32)cc1 [Example 11, (Z)-5-fluoro-2-methyl-1-(4-methoxybenzylidene)-3-indenyl-acetic acid]",% Apoptotic Cells,HT-29; 200 μM,> 90%
"COc1cc(/C=C2/C(C)=C(CC(=O)O)c3cc(F)ccc32)cc(Br)c1OC [Example 29, (Z)-5-fluoro-2-methyl-1-(3-bromo-4,5-dimethoxybenzylidene)-3-indenyl-acetic acid]",inhibition at 100 µM,SW-480 cell line,80%
CSc1ccc(/C=C2/C(C)=C(CC(=O)O)c3cc(F)ccc32)cc1 [Sulindac Sulfide],prostaglandin synthesis inhibition,prostaglandin synthesis,active moiety as a prostaglandin synthesis inhibitor
same,side effects,[2],associated with the side effects of conventional NSAIDs
CC1=C(CC(=O)O)c2cc(F)ccc2/C1=C\c1ccc([S+](C)[O-])cc1 (stereo not drawn) [Sulindac],effect on polyps,colonic polyps,Polyps virtually disappear
same,anti-arthritic activity,[3],believed to be inactive as an anti-arthritic agent
same,metabolic conversion,[4],converted by liver enzymes to the corresponding sulfide; also recorded: metabolized to sulfone compound
CC1=C(CC(=O)O)c2cc(F)ccc2/C1=C\c1ccc(S(C)(=O)=O)cc1 [sulfone],prostaglandin synthesis inhibition,prostaglandin synthesis,inactive as an inhibitor of prostaglandin synthesis
same,inhibition of precancerous lesions,precancerous lesions,active as an inhibitor of precancerous lesions
